Assay results from US6833456B2, “Indolyl-urea derivatives of thienopyridines useful as antiangiogenic agents, and methods for their use” (Agouron Pharmaceuticals, Inc., priority 2002, dated 2004).

Tests used:
Mouse PK assay = format: in vivo, B6 female mice; details: po
Protocol: The pharmacokinetics (e.g., absorption and elimination) of drugs in mice were analyzed using the following experiment. Test compounds were formulated as a suspension in a 30:70 (PEG 400: acidified H2O) vehicle. This solution was administered orally (p.o.) and intraperitoneally (i.p.) at 50 mg/kg to two distinct groups (n=4) of B6 female mice. Blood samples were collected via an orbital bleed at time points: 0 hour (pre-dose), 0.5 hr, 1.0 hr, 2.0 hr, and 4.0 hr post dose. Plasma was obtained from each sample by centrifugation at 2500 rpm for 5 min. Test compound was extracted from the plasma by an organic protein precipitation method. For each time bleed, 50 μL of plasma was combined with 1.0 mL of acetonitrile, vortexed for 2 min. and then spun at 4000 rpm for 15 min. to precipitate the protein and extract out the test compound. Next, the acetonitrile supernatant (the extract containing test compound) was poured into new test tubes and evaporated on a hot plate (25° C.) under a steam of N2 gas. To each tube containing the dried test compound extract, 125 μL of mobile phase (60:40, 0.025 M NH4H2PO4+2.5 mL/L TEA:acetonitrile) was added. The test compound was resuspended in the mobile phase by vortexing and more protein was removed by centrifugation at 4000 rpm for 5 min. Each sample was poured into an HPLC vial for test compound analysis on an Hewlett Packard 1100 series HPLC with UV detection. From each sample, 95 μL was injected onto a Phenomenex-Prodigy reverse phase C-18, 150×3.2 mm column and eluted with a 45-50% acetonitrile gradient run over 10 min. Test-compound plasma concentrations (μg/mL) were determined by a comparison to standard curve (peak area vs. conc. μg/mL) using known concentrations of test compound extracted from plasma samples in the manner described above. Along with the standards and unknowns, three groups (n=4) of quality controls (0.25 μg/mL, 1.5 μg/mL, and 7.5 μg/mL) were run to insure the consistency of the analysis. […] The quantitated test samples were plotted for visual display using Kaleidagraph software and their pharmacokinetic parameters were determined using WIN NONLIN software.

[1] = target: T1, unphosphorylated VEGF-R2Δ50 (FLVK) (Homo sapiens, UniProt P35968, DEL940-989/E990V); assay: VEGF-R2 coupled spectrophotometric assay, unphosphorylated construct (FLVK); format: biochemical; details: for inhibition at 0.05 µM: percent inhibition at 50 nM
T1 construct: VEGF-R2Δ50 contains residues 806-939 and 990-1171; made in house; host or cells: baculovirus/insect cell system
T1 sequence (P35968 with tags, fused parts or gaps DEL940-989/E990V limits assumed): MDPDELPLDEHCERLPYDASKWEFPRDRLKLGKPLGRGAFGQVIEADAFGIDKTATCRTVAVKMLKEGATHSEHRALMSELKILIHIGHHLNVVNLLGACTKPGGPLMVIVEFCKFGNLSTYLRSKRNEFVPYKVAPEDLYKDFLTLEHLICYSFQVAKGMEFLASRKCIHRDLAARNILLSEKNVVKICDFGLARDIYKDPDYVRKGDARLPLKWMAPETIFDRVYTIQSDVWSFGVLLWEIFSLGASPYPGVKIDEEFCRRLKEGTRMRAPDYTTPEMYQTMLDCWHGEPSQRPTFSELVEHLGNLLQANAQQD
Source text: This construct determines the ability of a test compound to inhibit tyrosine kinase activity. A construct (VEGF-R2Δ50) of the cytosolic domain of human vascular endothelial growth factor receptor 2 (VEGF-R2) lacking the 50 central residues of the 68 residues of the kinase insert domain was expressed in a baculovirus/insect cell system. Of the 1356 residues of full-length VEGF-R2, VEGF-R2Δ50 contains residues 806-939 and 990-1171, and also one point mutation (E990V) within the kinase insert domain relative to wild-type VEGF-R2. Autophosphorylation of the purified construct was performed by incubation of the enzyme at a concentration of 4 μM in the presence of 3 mM ATP and 40 mM MgCl2 in 100 mM HEPES, pH 7.5, containing 5% glycerol and 5 mM DTT, at 4° C. for 2 h. […] See Parast et al., Biochemistry, 37, 16788-16801 (1998).
The production of ADP from ATP that accompanies phosphoryl transfer was coupled to oxidation of NADH using phosphoenolpyruvate (PEP) and a system having pyruvate kinase (PK) and lactic dehydrogenase (LDH). The oxidation of NADH was monitored by following the decrease of absorbance at 340 nm ([…]=6.22 cm^−1 mM^−1) using a Beckman DU 650 spectrophotometer. Assay conditions for phosphorylated VEGF-R2Δ50 (indicated as FLVK-P in the tables below) were the following: 1 mM PEP; 250 μM NADH; 50 units of LDH/mL; 20 units of PK/mL; 5 mM DTT; […]; 1 mM ATP; and 25 mM MgCl2 in 200 mM HEPES, pH 7.5. Assay conditions for unphosphorylated VEGF-R2Δ50 (indicated as FLVK in the tables) were the following: 1 mM PEP; 250 μM NADH; 50 units of LDH/mL; 20 units of PK/mL; 5 mM DTT; […]; 3 mM ATP; and 60 mM MgCl2 and 2 mM MnCl2 in 200 mM HEPES, pH 7.5. Assays were initiated with 5 to 40 nM of enzyme. Ki values were determined by measuring enzyme activity in the presence of varying concentrations of test compounds. The percent inhibition at 50 nm (% inhibition@ 50 nm) was determined by linear least-squares regression analysis of absorbance as a function of time. The binding inhibitions were fitted to equation as described by Morrison. The data were analyzed using Enzyme Kinetic and Kaleidagraph software.

PDGFRβ = target: T2, PDGFRβ (Homo sapiens, UniProt P09619); assay: PAE-PDGFRβ phosphorylation in PAE-PDGFRB cells assay; format: cell-based; details: PAE cells overexpressing human PDGFRβ, PDGF-BB stimulated; read-out: PAE PDGFR autophos IC50
T2 construct: expressed in transfected cells; host or cells: porcine aorta endothelial (PAE) cells
T2 sequence (P09619 33-1106): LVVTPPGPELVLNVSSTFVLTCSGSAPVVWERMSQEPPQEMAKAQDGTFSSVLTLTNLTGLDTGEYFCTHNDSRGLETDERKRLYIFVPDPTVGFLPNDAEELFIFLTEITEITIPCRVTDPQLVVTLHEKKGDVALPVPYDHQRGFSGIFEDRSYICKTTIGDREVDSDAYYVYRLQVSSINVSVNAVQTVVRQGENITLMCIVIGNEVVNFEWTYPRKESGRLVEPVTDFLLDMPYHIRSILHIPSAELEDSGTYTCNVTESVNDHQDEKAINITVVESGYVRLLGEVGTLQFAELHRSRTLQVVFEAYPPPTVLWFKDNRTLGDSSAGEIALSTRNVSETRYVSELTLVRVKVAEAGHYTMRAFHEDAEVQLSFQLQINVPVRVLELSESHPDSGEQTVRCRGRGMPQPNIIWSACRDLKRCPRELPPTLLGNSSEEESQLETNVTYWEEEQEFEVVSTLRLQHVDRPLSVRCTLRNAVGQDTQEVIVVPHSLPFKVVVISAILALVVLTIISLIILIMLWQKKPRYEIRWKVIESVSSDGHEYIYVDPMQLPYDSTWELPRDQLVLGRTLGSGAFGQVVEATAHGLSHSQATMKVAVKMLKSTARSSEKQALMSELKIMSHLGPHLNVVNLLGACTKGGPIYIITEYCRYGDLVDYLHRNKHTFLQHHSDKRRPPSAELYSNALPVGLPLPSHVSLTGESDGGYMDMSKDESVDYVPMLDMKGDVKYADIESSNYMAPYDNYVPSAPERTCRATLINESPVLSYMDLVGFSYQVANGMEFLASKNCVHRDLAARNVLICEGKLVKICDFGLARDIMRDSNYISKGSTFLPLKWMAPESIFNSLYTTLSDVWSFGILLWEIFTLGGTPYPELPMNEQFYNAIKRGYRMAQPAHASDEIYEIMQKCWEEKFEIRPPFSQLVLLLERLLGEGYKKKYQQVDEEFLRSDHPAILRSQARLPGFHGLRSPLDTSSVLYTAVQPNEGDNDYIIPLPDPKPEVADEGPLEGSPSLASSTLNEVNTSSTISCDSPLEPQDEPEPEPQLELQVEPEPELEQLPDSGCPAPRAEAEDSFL
Protocol: This assay determines the ability of a test compound to inhibit the autophosphorylation of PDGFRβ in porcine aorta endothelial (PAE)-PDGFRβ cells. PAE cells that overexpress human PDGFRβ were used in this assay. The cells were cultured in Ham's F12 media supplemented with 10% fetal bovine serum (FBS) and 400 ug/ml G418. Twenty thousands cells were seeded in each well of a 96-well plate in 50 μL of growth media and allowed to attach for 6 hours at 37° C. Cells were then exposed to the starvation media (Ham's F12 media supplemented with 0.1% FBS) for 16 hours. After the starvation period was over, 10 μL of test agent in 5% DMSO in starvation media were added to the test wells and 10 μL of the vehicle (5% DMSO in starvation media) were added into the control wells. The final DMSO concentration in each well was 0.5%. Plates were incubated at 37° C. for 1 hour and the cells were then stimulated with 1 μg/mL PDGF-BB (R & D System) in the presence of 2 mM Na3VO4 for 8 minutes. The cells were washed once with 1 mm Na3VO4 in HBSS and lysed by adding 50 μL per well of lysis buffer. One hundred μL of dilution buffer were then added to each well and the diluted cell lysate was transferred to a 96-well goat ant-rabbit coated plate (Pierce), which was pre-coated with Rabbit anti Human PDGFRβ antibody (Santa Cruz). The plates were incubated at room temperature for 2 hours and washed seven times with 1% Tween 20 in PBS. HRP-PY20 (Santa Cruz) was diluted and added to the plate for a 30-minute incubation. Plates were then washed again and TMB peroxidase substrate (Kirkegaard & Perry) was added for a 10-minute incubation. One hundred μL of 0.09 N H2SO4 was added into each well of the 96-well plate to stop the reaction. Phosphorylation status was assessed by spectrophotometer reading at 450 nm. IC50 values were calculated by curve fitting using a four-parameter analysis.

Row | SMILES | Mouse Cmin, po (Mouse PK assay) [ng/mL] | Ki [1] [nM] | inhibition at 0.05 µM [1] [%] | IC50 (PDGFRβ) [nM] | AUC (Mouse PK assay; female, B6, mouse, plasma, 50 mg/kg) [ng·h/mL] | Cmax (Mouse PK assay; female, B6, mouse, plasma, 50 mg/kg, p.o., 50 mg/kg, read-out: Mouse Cmax, po ng-h/mL) [ng/mL]
1 | C#CCNC(=O)n1c(C)cc2c(F)c(Oc3ccnc4cc(C(=O)N5CCC(O)C5)sc34)ccc21 (stereo in doubt) [Example 5k, 4-Fluoro-5-[2-(3R-hydroxy-pyrrolidine-1-carbonyl)-thieno[3,2-b]pyridin-7-yloxy]-2-methyl-indole-1-carboxylic acid prop-2-ynylamide] | 16470 | 0.148 | 99 |  |  | 
2 | C#CCNC(=O)n1c(C)cc2cc(Nc3ccnc4cc(C(=O)N5CC[C@H](OC)C5)sc34)ccc21 [Example 1h, 5-[2-(3S-Methoxy-pyrrolidine-1-carbonyl)-thieno[3,2-b]pyridin-7-ylamino]-2-methyl-indole-1-carboxylic acid prop-2-ynylamide] |  | 1.23 | 94 | 57.7 |  | 
3 | CNC(=O)n1c(C)cc2cc(Oc3ccnc4cc(-c5nc(CO)cs5)sc34)ccc21 [Example 3m] |  | 0.2 | 83 | 2.48 |  | 
4 | COC[C@H]1CCCN1C(=O)c1cc2nccc(Oc3ccc4[nH]c(C)c(C(=O)NC5CC5)c4c3)c2s1 [Example 4y, 5-[2-(2R-Methoxymethyl-pyrrolidine-1-carbonyl)-thieno[3,2-b]pyridin-7-yloxy]-2-methyl-1H-indole-3-carboxylic acid cyclopropylamide] | 11 | 24 | 10 |  | 383 | 265
5 | C#CCNC(=O)n1c(C)cc2c(F)c(Oc3ccnc4cc(C(=O)N5CC[C@@H](OC)C5)sc34)ccc21 [Example 5o, 4-Fluoro-5-[2-((R)-3-methoxy-pyrrolidine-1-carbonyl)-thieno[3,2-b]pyridin-7-yloxy]-2-methyl-indole-1-carboxylic acid prop-2-ynylamide] |  | 0.09 | 99 | 3.65 |  | 
6 | CNC(=O)n1c(C)cc2cc(Nc3ccnc4cc(C(=O)N5CC(F)[C@H](O)C5)sc34)ccc21 (stereo partly drawn) [Example 7b, 5-[(2-{[(4R)-3-Fluoro-4-hydroxypyrrolidin-1-yl]carbonyl}thieno[3,2-b]pyridin-7-yl)amino]-N,2-dimethyl-1H-indole-1-carboxamide] |  | 0.406 | 95 | > 1000 |  | 
7 | CNC(=O)c1c(C)n(C(=O)NC)c2ccc(Oc3ccnc4cc(C(=O)N5CC[C@@H](N(C)C)C5)sc34)cc12 [Example 8a, 5-[(2-{[(3R)-3-(Dimethylamino)pyrrolidin-1-yl]carbonyl}thieno[3,2-b]pyridin-7-yl)oxy]-N,N′,2-trimethyl-1H-indole-1,3-dicarboxamide] |  | 4.55 | 68 | > 1000 |  | 
8 | CO[C@H]1CCN(C(=O)c2cc3nccc(Oc4ccc5c(c4)cc(C)n5C(=O)NCCCCO)c3s2)C1 [Example 9a, 5-[2-(3S-Methoxy-pyrrolidine-1-carbonyl)-thieno[3,2-b]pyridin-7-yloxy]-2-methyl-indole-1-carboxylic acid (4-hydroxy-butyl)-amide] |  | 0.521 | 89 |  |  | 
9 | CCC(=O)n1c(C)cc2cc(Oc3ccnc4cc(C(=O)N5CC[C@H](O)C5)sc34)ccc21 [Example 10b, (3S)-1-({7-[(2-Methyl-1-propionyl-1H-indol-5-yl)oxy]thieno[3,2-b]pyridin-2-yl}carbonyl)pyrrolidin-3-ol] |  | 2.72 | 90 |  |  | 
10 | CCOC(=O)c1cc2ncnc(Nc3ccc4c(c3)cc(C)n4C(=O)NC)c2s1 [Example 11a, 4-(2-Methyl-1-methylcarbamoyl-1H-indol-5-ylamino)-thieno[3,2-b]pyrimidine-6-carboxylic acid ethyl ester] |  | 37.8 | 20 |  |  | 
11 | CNC(=O)n1c(C)cc2cc(Nc3ncnc4cc(C(=O)N5CCC[C@H]5COC)sc34)ccc21 [Example 11b, 5-[6-(2-Methoxymethyl-pyrrolidine-1-carbonyl)-thieno[3,2-b]pyrimidin-4-ylamino]-2-methyl-indole-1-carboxylic acid methylamide] |  | 28.8 | 18 |  |  | 
12 | CCOC(=O)c1cc2c(Nc3ccc4c(c3)cc(C)n4C(=O)NC)ncnc2s1 [Example 12a, 4-(2-Methyl-1-methylcarbamoyl-1H-indol-5-ylamino)-thieno[2,3-b]pyrimidine-6-carboxylic acid ethyl ester] |  | 240 | 0 |  |  | 
13 | CNC(=O)n1c(C)cc2cc(Nc3ncnc4sc(C(=O)N5CCC[C@H]5COC)cc34)ccc21 [Example 12b, 5-[6-(2-Methoxymethyl-pyrrolidine-1-carbonyl)-thieno[2,3-b]pyrimidin-4-ylamino]-2-methyl-indole-1-carboxylic acid methylamide] |  | 141 | 5 | > 1000 |  | 
14 | CCOC(=O)c1cc2c(Oc3ccc4c(c3)cc(C)n4C(=O)NC)ncnc2s1 [Example 12c, 4-(2-Methyl-1-methylcarbamoyl-1H-indol-5-yloxy)-thieno[2,3-b]pyrimidine-6-carboxylic acid ethyl ester] |  | 34.3 | 14 |  |  | 
